{"source": "patent US20240317732A1", "about": "“A NEW MOLECULAR SCAFFOLD FOR TARGETING HRPN13” (THE UNITED STATES OF AMERICA AS REPRESENTED BY THE …, priority 2021, published 2024)", "key": {"[1]": {"tested_on": "RPMI 8226 cells", "assay": "MTT cell metabolism / cell viability assay in RPMI 8226", "type": "cell-based", "details": "RPMI 8226, 48 hours, up to 40 μM", "description": "Since previous hRpn13-targeting molecules induce apoptosis in multiple myeloma and colon cancer cells we tested whether XL5 restricts the RPMI 8226 multiple myeloma and HCT116 colon cancer cell lines by measuring metabolism with an MTT (3-(4,5-dimethylthiazol-2-yl)-2,5-diphenyltetrazolium bromide) assay. Experiments were also conducted in parallel with a HCT116 colon cancer cell line in which the exon encoding hRpn13 C88 is deleted, named trRpn13; this cell line expresses a truncated hRpn13 protein with a defective Pru and inability to bind the proteasome28. RPMI 8226 and WT (wild-type) or trRpn13 HCT116 cells seeded at 8,000 and 4,000 cells per well were treated with varying concentrations of XL5 extending to 40 μM and compared to cells incubated with equivalent amounts of DMSO vehicle control.\nHCT116 WT or trRpn13 cells were seeded at 4,000 cells/well whereas RPMI 8226 cells were seeded at 8,000 cells/well with RPMI 1640 medium (no phenol red, Thermo Fisher Scientific 11835030) containing 2% fetal bovine serum in 96-well plates. Cells were treated with 0.4% DMSO (as a control) and this concentration was maintained with XL5, XL5-PROTACs XL5-VHL, XL5-VHL-2, XL5-CRBN, or XL5-IAP, and E3 ligands VHL-Ac, thalidomide (Selleckchem, catalog NO. S1193), or IAP-Bz at 10 μM, 20 μM, 30 μM or 40 μM concentration. After 48 hours, 0.35 mg/mL MTT was added for 4 hours of incubation. Stop solution (40% DMF, 10% SDS (W/V), 25 mM HCl, 2.5% acetic acid in H2O) was added to the cells and incubated overnight. Absorbance at 570 nm was measured by using CLARIOstar (BMG LABTECH)."}, "[2]": {"tested_on": "hRpn13 / hRpn13-Pru", "assay": "Immunoblot of hRpn13 species in RPMI 8226 cell lysates", "type": "cell-based, human", "details": "RPMI 8226 WT, 100 nM, 24 hours", "description": "HCT116 WT, HCT116 trRpn13, RPMI 8226 or 293T cells were collected and washed with PBS followed by lysing in 1% Triton-TBS lysis buffer (50 mM Tris-HCl, pH 7.5, 150 mM NaCl, 1 mM PMSF) supplemented with protease inhibitor cocktail (Roche). Total protein concentration was determined by bicinchoninic acid (Pierce). Protein lysates were prepared in 1χ LDS (ThermoFisher, NP0007) buffer with 100 mM DTT and heating at 70° C. for 10 min, loaded onto 4-12% Bis-Tris polyacrylamide gels (Life Technologies), subjected to SDS-PAGE and transferred to Invitrolon polyvinylidene difluoride membranes (Life Technologies). The membranes were blocked in Tris-buffered saline with 0.1% Tween-20 (TBST) supplemented with 5% skim milk, incubated with primary antibody, washed in TBST, incubated with secondary antibody and washed extensively in TBST. Pierce™ ECL Western Blotting Substrate (32106; Thermo Fisher Scientific) or Amersham™ ECL™ Primer Western Blotting Detection Reagent (cytiva) was used for antibody signal detection.\nTo test whether the XL5-PROTACs cause ubiquitination and degradation of hRpn13, lysates from RPMI 8226 (FIG. 5C) cells treated with 40 μM XL5 orXL5-PROTAC compared to DMSO vehicle control were immunoprobed for hRpn13 and β-actin (loading control)."}, "[3]": {"molecular_target": "T1, hRpn13 Pru (Homo sapiens (Human), UniProt Q16186)", "T1 sequence (Q16186 1-150)": "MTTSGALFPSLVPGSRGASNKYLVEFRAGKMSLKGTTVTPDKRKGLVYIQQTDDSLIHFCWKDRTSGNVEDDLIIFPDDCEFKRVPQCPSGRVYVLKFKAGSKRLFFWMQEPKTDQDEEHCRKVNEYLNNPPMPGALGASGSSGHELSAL", "assay": "Isothermal titration calorimetry (ITC) of hRpn13 Pru binding", "details": "25° C.", "description": "ITC experiments were performed at 25° C. on a MicroCal iTC200 system (Malvern, PA, USA). hRpn13 Pru, XL5, XL5 derivative, or RA190 were prepared in buffer C. One aliquot of 0.5 μL followed by 17 or 18 aliquots of 2.1 μL of 200 μM hRpn13 Pru was injected at 750 r.p.m. into a calorimeter cell (volume […]) that contained 20 μM XL5, XL5 derivative, or RA190. Blank experiments were performed by replacing XL5, XL5 derivative, or RA190 with buffer in the cell and the resulting data subtracted from the experimental data during analyses. The integrated interaction heat values were normalized as a function of protein concentration and the data were fit with MicroCal Origin 7.0-based software implementing the “One Set of Sites” model to yield binding affinity Ka (1/Kd), stoichiometry, and other thermodynamic parameters. Dissociation constants (Kd) as determined by ITC as well as relative binding affinities of selected compounds are presented n Table 1, while additional information on named compounds including structures, synthesis, and characterization is presented in Examples 3-9: […]"}, "[4]": {"molecular_target": "T1, hRpn13 Pru", "assay": "2D NMR (1H,15N HSQC) binding to 15N-labeled hRpn13 Pru", "details": "assessed by ITC and NMR", "description": "We conducted in silico docking screens of commercial libraries containing in total 63 million compounds by using the hRpn13 Pru:hRpn2 structure and hRpn2-binding site of hRpn13 as a binding pocket. Twenty-two potential lead compounds were selected for validation by biophysical assays. hRpn13 W108 is partially exposed when free but buried by hRpn2, enabling tryptophan quenching by differential scanning fluorimetry (DSF at λ350) for assaying binding and this approach was used to screen for compound binding to this site. 20 μM compound (separately for twenty compounds) was incubated with 1 μM hRpn13 Pru and fluorescence emission at 350 nm measured. […] The compounds were separately added at 10-fold molar excess to 20 μM ^15N-labeled hRpn13 Pru and binding assessed at 25° C. by 2D NMR for samples dissolved in NMR buffer (20 mM sodium phosphate, 50 mM NaCl, 2 mM DTT, 10% DMSO-d6 (deuterated DMSO), pH 6.5). […]\nFor screening by ^1H, ^15N HSQC experiments, small molecule dissolved in DMSO-d6 was added to 20 μM or 250 μM ^15N-labeled hRpn13 Pru at a molar excess of 2-fold (for XL5) or 10-fold (for all compounds tested) in NMR buffer (20 mM sodium phosphate, 50 mM NaCl, 2 mM DTT, 10% DMSO-d6, pH 6.5). […] Three ^13C-half-filtered NOESY experiments were recorded with a 100 ms mixing time on asymmetrically labeled samples dissolved in NMR buffer. […]"}, "[5]": {"assay": "Reactivity in mouse serum by LC-MS", "type": "in vitro ADME", "details": "0.2 μM, room temperature, 24-hour time period", "description": "To test for covalent interaction, an hRpn13 Pru sample was incubated with 10-fold molar excess XL5 or DMSO (as a vehicle control) and subjected to liquid chromatography-mass spectrometry (LC-MS). […] To test for general reactivity of XL5 towards exposed cysteines, 40 μM XL5 was incubated at 4° C. for two hours with 2 mM reduced L-glutathione serving as representative of a non-specific interactor with exposed cysteines. XL5-ligated glutathione was detected at only 2% abundance (FIG. 2B). Under identical conditions, 40 μM RA190 reacted with 2 mM reduced L-glutathione to yield products with one or two molecules ligated at 14% or 30% abundance, respectively. We also tested XL5 reactivity by incubating it at 0.2 μM with mouse serum (BioIVT) and monitoring the effect by LC-MS over a 24-hour time period to find only 6% reduction in the unligated compound.\nTo check for reactivity of XL5 in mouse serum, 0.2 μM XL5 was mixed with mouse serum (BioIVT) and aliquots of the spiked mixture left at room temperature for 0, 4, 8 and 24 hours. For each time point, six samples were extracted using 75% acetonitrile and 0.075% formic acid. The supernatant was transferred to polypropylene injection vials for LC-MS analysis. […]"}, "[6]": {"molecular_target": "T1, hRpn13 Pru", "assay": "Differential scanning fluorimetry, tryptophan quenching at 350 nm", "type": "binding", "details": "1 μM hRpn13 Pru, 20° C.", "description": "We conducted in silico docking screens of commercial libraries containing in total 63 million compounds by using the hRpn13 Pru:hRpn2 structure and hRpn2-binding site of hRpn13 as a binding pocket. Twenty-two potential lead compounds were selected for validation by biophysical assays. hRpn13 W108 is partially exposed when free but buried by hRpn2, enabling tryptophan quenching by differential scanning fluorimetry (DSF at λ350) for assaying binding and this approach was used to screen for compound binding to this site. 20 μM compound (separately for twenty compounds) was incubated with 1 μM hRpn13 Pru and fluorescence emission at 350 nm measured. […] The compounds were separately added at 10-fold molar excess to 20 μM ^15N-labeled hRpn13 Pru and binding assessed at 25° C. by 2D NMR for samples dissolved in NMR buffer (20 mM sodium phosphate, 50 mM NaCl, 2 mM DTT, 10% DMSO-d6 (deuterated DMSO), pH 6.5). […] XL5 addition caused hRpn13 signals to shift from free state positions to an observable bound state whereas spectral changes were not induced by the other compounds tested. […]\nDSF experiments were performed on a PrometheusNT.48 instrument (NanoTemper Technologies, Germany) at 20° C. […] Each sample was loaded into three high sensitivity capillaries (NanoTemper, cat #PR-C006) and the emission of intrinsic tryptophan fluorescence at 350 nm was monitored."}}}
{"smiles": "CC(=O)N[C@H](C(=O)N1C[C@H](O)C[C@H]1C(=O)N[C@@H](C)c1ccc(-c2scnc2C)cc1)C(C)(C)C", "note": "[VHL-Ac, reference compound]", "values": [{"measurement": "metabolic activity / cell viability (MTT)", "setting": "[1]", "value": "did not affect metabolic activity"}]}
{"smiles": "O=C1CCC(N2C(=O)c3ccccc3C2=O)C(=O)N1", "note": "(centres unmarked) [thalidomide, reference compound]", "values": [{"measurement": "metabolic activity / cell viability (MTT)", "setting": "[1]", "value": "did not affect metabolic activity"}]}
{"smiles": "CC(C)C[C@H](NC(=O)[C@H](CCc1ccccc1)NC(=O)CN1CCOCC1)C(=O)N[C@@H](Cc1ccccc1)C(=O)N[C@@H](CC(C)C)C(=O)[C@@]1(C)CO1", "note": "[carfilzomib, reference compound]", "values": [{"measurement": "hRpn13-Pru level after proteasome inhibitor", "setting": "[2]", "value": "reduced levels of hRpn13-Pru"}]}
{"smiles": "CNc1ccc(C(=O)Nc2cccc(/C=C(\\C#N)C(=O)Nc3ccccc3C(=O)O)c2)cc1", "note": "[XL24]", "values": [{"measurement": "Kd", "setting": "[3]; 200 μM hRpn13 Pru into 20 μM compound, buffer C", "value": "1740 ± 350", "unit": "nM"}, {"measurement": "change of affinity for hRpn13 Pru relative to XL5", "setting": "[4]", "value": "little effect"}]}
{"smiles": "Cc1ccc(C(=O)Nc2cccc(/C=C(\\C#N)C(=O)Nc3ccccc3C(=O)O)c2)cc1", "note": "[XL5]", "values": [{"measurement": "reduction in the unligated compound in mouse serum", "setting": "[5]", "value": 6, "unit": "%"}]}
{"smiles": "Cl.N[C@@H](Cc1ccccc1)C(=O)N1C/C(=C/c2ccc(Cl)c(Cl)c2)C(=O)/C(=C\\c2ccc(Cl)c(Cl)c2)C1", "note": "[RA190, reference compound]", "values": [{"measurement": "binding detected by ITC", "setting": "[3]", "value": "did not detect binding"}, {"measurement": "tryptophan fluorescence emission quenching at 350 nm", "setting": "[6]", "value": "titration-dependent reduction in λ350 signal"}]}
